Measured values as given in patent US20170233413A1, “SUBSTITUTED ANNULATED PYRIMIDINES AND USE THEREOF” (Bayer Pharma Aktiengesellschaft, priority 2014, published 2017).
pIC50: −log10 of the molar value.

Key:
[1] = biological target: T1, human phosphodiesterase 5 (PDE 5) (Homo sapiens, UniProt O76074); test: Inhibition of human phosphodiesterase 5 (PDE 5); format: biochemical; details: PDE 5 preparation from human platelets; in some cases means of individual determinations
T1 construct: PDE 5 preparations are obtained from human platelets by disruption; from tissue; host or cells: human platelets
How it was run: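 IC50 comes from percent inhibition over a 1:3 series with final levels of 4 to 0.0018 μM. Reaction: tritiated cGMP tracer (0.025 μCi) with platelet-derived, Mono Q-purified enzyme, 1 h at room temperature in Tris pH 7.5, under 70% turnover. Read-out by scintillation proximity beads.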

[2] = biological target: T2, recombinant guanylate cyclase reporter cell line (Rattus norvegicus, UniProt P19686+P20595); test: Effect on a recombinant guanylate cyclase reporter cell line; format: cell-based; details: MEC = minimum effective concentration; in some cases means of individual determinations
T2 construct: expressed in transfected cells
T2 sequence (P19686 1-690): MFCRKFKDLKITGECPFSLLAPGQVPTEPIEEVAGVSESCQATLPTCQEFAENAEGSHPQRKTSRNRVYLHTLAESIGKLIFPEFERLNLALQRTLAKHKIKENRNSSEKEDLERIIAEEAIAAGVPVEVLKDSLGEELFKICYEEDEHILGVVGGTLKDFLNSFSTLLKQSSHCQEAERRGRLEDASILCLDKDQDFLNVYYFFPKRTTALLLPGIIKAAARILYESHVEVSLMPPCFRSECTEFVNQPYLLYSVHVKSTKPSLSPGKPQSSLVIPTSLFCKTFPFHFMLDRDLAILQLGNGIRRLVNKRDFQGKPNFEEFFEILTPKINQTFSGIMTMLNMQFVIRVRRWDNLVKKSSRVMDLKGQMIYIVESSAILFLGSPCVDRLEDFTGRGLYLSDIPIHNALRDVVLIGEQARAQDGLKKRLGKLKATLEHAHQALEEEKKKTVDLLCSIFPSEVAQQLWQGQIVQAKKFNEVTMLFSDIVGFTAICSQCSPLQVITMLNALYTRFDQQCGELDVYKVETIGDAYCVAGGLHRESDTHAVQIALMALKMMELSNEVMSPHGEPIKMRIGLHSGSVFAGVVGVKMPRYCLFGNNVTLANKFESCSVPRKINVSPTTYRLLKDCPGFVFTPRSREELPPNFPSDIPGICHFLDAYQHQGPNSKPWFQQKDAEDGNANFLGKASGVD
T2 sequence (P20595 1-619): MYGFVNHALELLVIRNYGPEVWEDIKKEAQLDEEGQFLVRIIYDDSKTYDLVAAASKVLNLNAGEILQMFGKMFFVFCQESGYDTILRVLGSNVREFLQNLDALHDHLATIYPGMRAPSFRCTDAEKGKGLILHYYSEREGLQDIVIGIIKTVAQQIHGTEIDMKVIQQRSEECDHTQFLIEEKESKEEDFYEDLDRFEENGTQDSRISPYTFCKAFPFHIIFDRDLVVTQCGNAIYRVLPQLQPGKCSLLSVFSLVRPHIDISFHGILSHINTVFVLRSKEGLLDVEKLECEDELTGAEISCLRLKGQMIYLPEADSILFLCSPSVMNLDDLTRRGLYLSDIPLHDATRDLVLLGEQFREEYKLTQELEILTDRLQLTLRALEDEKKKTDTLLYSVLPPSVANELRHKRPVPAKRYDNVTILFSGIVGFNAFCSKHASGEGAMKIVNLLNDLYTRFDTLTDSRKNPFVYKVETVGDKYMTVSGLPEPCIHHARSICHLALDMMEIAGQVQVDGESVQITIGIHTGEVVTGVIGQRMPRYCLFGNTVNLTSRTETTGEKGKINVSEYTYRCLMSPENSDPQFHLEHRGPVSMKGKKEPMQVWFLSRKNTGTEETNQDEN
How it was run: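 Values are reported as MEC, sometimes averaged over individual determinations. The test system is a reporter cell line expressing recombinant rat guanylate cyclase.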

pIC50 [1] | MEC [2] [µM] | Structure (SMILES)
5.96 | 0.1 | CC1(C)C(=O)Nc2nc(-c3nn(Cc4ccccc4F)c4cc(Cl)ccc34)nc(C(=O)N3CCCC3)c21 [Example 48]
7.89 | 0.03 | CC1(C)C(=O)Nc2nc(-c3nn(Cc4ccccc4F)c4ncc(F)cc34)nc(C(N)=O)c21 [Example 2, 2-[5-Fluoro-1-(2-fluorobenzyl)-1H-pyrazolo[3,4-b]pyridin-3-yl]-5,5-dimethyl-6-oxo-6,7-dihydro-5H-pyrrolo[2,3-d]pyrimidine-4-carboxamide]
7.00 | 0.03 | CC1(C)C(=O)Nc2nc(-c3nn(Cc4ccccc4F)c4cc(Cl)ccc34)nc(C(N)=O)c21 [Example 3, 2-[6-Chloro-1-(2-fluorobenzyl)-1H-indazol-3-yl]-5,5-dimethyl-6-oxo-6,7-dihydro-5H-pyrrolo[2,3-d]pyrimidine-4-carboxamide]
6.96 | 0.1 | CN(CC1CC1)C(=O)c1nc(-c2nn(Cc3ncccc3F)c3ncc(F)cc23)nc2c1C(C)(C)C(=O)N2 [Example 33]
7.82 | 0.3 | CC1(C)C(=O)Nc2nc(-c3nn(Cc4ccccc4F)c4ncccc34)nc(C(=O)NCCO)c21 [Example 114, 2-[1-(2-fluorobenzyl)-1H-pyrazolo[3,4-b]pyridin-3-yl]-N-(2-hydroxyethyl)-5,5-dimethyl-6-oxo-6,7-dihydro-5H-pyrrolo[2,3-d]pyrimidine-4-carboxamide]
6.89 | 0.03 | Cc1nc2c(cc1F)c(-c1nc3c(c(C(N)=O)n1)C(C)(C(F)(F)F)C(=O)N3)nn2Cc1ccccc1F (single isomer, unassigned; ent-2) [Example 14, ent-2-[5-fluoro-1-(2-fluorobenzyl)-6-methyl-1H-pyrazolo[3,4-b]pyridin-3-yl]-5-methyl-6-oxo-5-(trifluoromethyl)-6,7-dihydro-5H-pyrrolo[2,3-d]pyrimidine-4-carboxamide (enantiomer B)]
7.62 | 0.3 | CC1(C)C(=O)Nc2nc(-c3nn(Cc4ccccc4F)c4ncccc34)nc(C(=O)Nc3cc[nH]n3)c21 [Example 87, 2-[1-(2-fluorobenzyl)-1H-pyrazolo[3,4-b]pyridin-3-yl]-5,5-dimethyl-6-oxo-N-(1H-pyrazol-3-yl)-6,7-dihydro-5H-pyrrolo[2,3-d]pyrimidine-4-carboxamide]
7.85 | 0.1 | COCCCNC(=O)c1nc(-c2nn(Cc3ccccc3F)c3ncccc23)nc2c1C(C)(C)C(=O)N2 [Example 90, 2-[1-(2-fluorobenzyl)-1H-pyrazolo[3,4-b]pyridin-3-yl]-N-(3-methoxypropyl)-5,5-dimethyl-6-oxo-6,7-dihydro-5H-pyrrolo[2,3-d]pyrimidine-4-carboxamide]
7.60 | 0.1 | CC1(C)C(=O)Nc2nc(-c3nn(Cc4ccccc4F)c4ncccc34)nc(C(=O)NCc3ccccn3)c21 [Example 117, 2-[1-(2-fluorobenzyl)-1H-pyrazolo[3,4-b]pyridin-3-yl]-5,5-dimethyl-6-oxo-N-(pyridin-2-ylmethyl)-6,7-dihydro-5H-pyrrolo[2,3-d]pyrimidine-4-carboxamide]

More lines, now with the values behind:

Structure (SMILES) | pIC50 [1] | MEC [2] [µM]
CC(N)(CNC(=O)c1nc(-c2nn(Cc3ncccc3F)c3ncc(F)cc23)nc2c1C(C)(C)C(=O)N2)CC(F)F (single isomer, unassigned; enantiomer a) [Example 55, ent-N-(2-Amino-4,4-difluoro-2-methylbutyl)-2-{5-fluoro-1-[(3-fluoropyridin-2-yl)methyl]-1H-pyrazolo[3,4-b]pyridin-3-yl}-5,5-dimethyl-6-oxo-6,7-dihydro-5H-pyrrolo[2,3-d]pyrimidine-4-carboxamide (enantiomer A)] | 6.72 | 3
CCOCCCNC(=O)c1nc(-c2nn(Cc3ccccc3F)c3ncccc23)nc2c1C(C)(C)C(=O)N2 [Example 123, N-(3-ethoxypropyl)-2-[1-(2-fluorobenzyl)-1H-pyrazolo[3,4-b]pyridin-3-yl]-5,5-dimethyl-6-oxo-6,7-dihydro-5H-pyrrolo[2,3-d]pyrimidine-4-carboxamide] | 7.59 | 0.1
CC1(C)C(=O)Nc2nc(-c3nn(Cc4ccccc4F)c4ncccc34)nc(C(=O)NCC(N)CC(F)(F)F)c21 (racemic) [Example 136, rac-N-(2-amino-4,4,4-trifluorobutyl)-2-[1-(2-fluorobenzyl)-1H-pyrazolo[3,4-b]pyridin-3-yl]-5,5-dimethyl-6-oxo-6,7-dihydro-5H-pyrrolo[2,3-d]pyrimidine-4-carboxamide] | 7.38 | 1
Cc1nc2c(cc1F)c(-c1nc3c(c(C(N)=O)n1)C(C)(C(F)(F)F)C(=O)N3)nn2Cc1ncccc1F (racemic) [Example 18, rac-2-{5-Fluoro-1-[(3-fluoropyridin-2-yl)methyl]-6-methyl-1H-pyrazolo[3,4-b]pyridin-3-yl}-5-methyl-6-oxo-5-(trifluoromethyl)-6,7-dihydro-5H-pyrrolo[2,3-d]pyrimidine-4-carboxamide] | 6.24 | 0.3
CC1(NC(=O)c2nc(-c3nn(Cc4ccccc4F)c4ncccc34)nc3c2C(C)(C)C(=O)N3)CCC1 [Example 97, 2-[1-(2-fluorobenzyl)-1H-pyrazolo[3,4-b]pyridin-3-yl]-5,5-dimethyl-N-(1-methylcyclobutyl)-6-oxo-6,7-dihydro-5H-pyrrolo[2,3-d]pyrimidine-4-carboxamide] | 8.09 | 0.3
CC1(C)C(=O)Nc2nc(-c3nn(Cc4ccccc4F)c4ncccc34)nc(C(=O)NCC3CCCO3)c21 (racemic) [Example 130, rac-2-[1-(2-fluorobenzyl)-1H-pyrazolo[3,4-b]pyridin-3-yl]-5,5-dimethyl-6-oxo-N-(tetrahydrofuran-2-ylmethyl)-6,7-dihydro-5H-pyrrolo[2,3-d]pyrimidine-4-carboxamide] | 7.55 | 0.3
CC1(C)C(=O)Nc2nc(-c3nn(Cc4ccccc4F)c4ncc(F)cc34)nc(C(=O)NC3CC3)c21 [Example 28] | 8.28 | 0.03
Cc1nc2c(cc1F)c(-c1nc3c(c(C(N)=O)n1)C(C)(C(F)(F)F)C(=O)N3)nn2Cc1c(F)ccc(F)c1F (racemic) [Example 15, rac-2-[5-fluoro-6-methyl-1-(2,3,6-trifluorobenzyl)-1H-pyrazolo[3,4-b]pyridin-3-yl]-5-methyl-6-oxo-5-(trifluoromethyl)-6,7-dihydro-5H-pyrrolo[2,3-d]pyrimidine-4-carboxamide] | 5.92 | 0.2
CC(C)CNC(=O)c1nc(-c2nn(Cc3ccccc3F)c3ncccc23)nc2c1C(C)(C)C(=O)N2 [Example 122, 2-[1-(2-fluorobenzyl)-1H-pyrazolo[3,4-b]pyridin-3-yl]-5,5-dimethyl-N-(2-methylpropyl)-6-oxo-6,7-dihydro-5H-pyrrolo[2,3-d]pyrimidine-4-carboxamide] | 7.70 | 0.1
CC1(C)C(=O)Nc2nc(-c3nn(Cc4ccccc4F)c4ncc(F)cc34)nc(C(=O)NC3(C#N)CC3)c21 [Example 31] | 8.00 | 0.1
CC1(C)C(=O)Nc2nc(-c3nn(Cc4ccccc4F)c4ncccc34)nc(C(=O)Nc3nnc[nH]3)c21 [Example 94, 2-[1-(2-fluorobenzyl)-1H-pyrazolo[3,4-b]pyridin-3-yl]-5,5-dimethyl-6-oxo-N-(4H-1,2,4-triazol-3-yl)-6,7-dihydro-5H-pyrrolo[2,3-d]pyrimidine-4-carboxamide] | 7.80 | 0.3
